Measured values taken from patent US3996381A, “Amphetamine derivatives” (Astra Lakemedel Aktiebolag, priority 1973, dated 1976).

Key:
Assay type in all cases: in vivo
[1] = test system: syndromes produced by 5-hydroxytryptophan (5-HTP); test: 5-HTP response potentiation test; conditions: Mus musculus, ip; mice; before dl-5-HTP 90 mg/kg i.v.
Description: It is not possible by experimental means to induce depressions in laboratory animals. In order to evaluate a possible anti depressive effect on new substances biochemical-pharmacological test methods must be resorted to. One such method, which seems to give a good indication of the potential anti depressive effects of the test substances, is described in Europ. J. Pharmacol. 17, 107, 1972. This method involves the measurement of the potentiation of the syndromes produced by 5-hydroxytryptophan (5-HTP) in a laboratory animal.
5-HTP response potantiation test
Inhibition of the uptake of 5-HT potentiates the effects of administered 5-hydroxytryptophan (5-HTP) probably by increasing the amount of 5-HT at the receptor. Three mice are given the test drugs 1 hour (or 4, 24 hours) before dl-5-HTP, 90 mg/kg i.v. 5-HTP alone gives only a weak behavioural syndrome but in pretreated mice there is seen a characteristic behavioural syndrome, which comes within five minutes: tremor, lordosis, abduction of the hindlegs, head-twitches.
The absence or presence of respective syndrome is scored in groups of ten mice. The compound was administered in at least five doses and the quantal responses were analysed by probit analysis and ED50 determined according to the method of Litchfield and Wilcoxon.

[2] = test system: motor activity in mice; test: Motor activity in mice (exploratory activity in locomotion cage); parameters: key to Motor Activity (+ = increase, - = decrease, 0 = no effect): + = increase; - = decrease; 0 = no effect; conditions: for Motor Activity (+ = increase, - = decrease, 0 = no effect): recorded for ten minutes one hour after administration, compared to control groups
Protocol: The lack of euphoric effects, that is lack of central stimulatory activity, is tested by measuring the motor activity in mice after administration of the test substance.
The exploratory activity of mice was recorded in a locomotion cage in which the movements were counted each time the animals cross-circuits an electrical current in the bottom plate. The activity was recorded for ten minutes one hour after the administration of the drug. The animals were tested individually. Groups of six mice were used and the mice were only used once. The activity was expressed in per cent of the activity of control groups ran simultaneously. The compounds were administered in at least four doses. The increase (+) or decrease (-) of the activity compared to control groups was determined from log dose response curves.

[3] = test system: aggressive behaviour in mice; test: Aggressive behaviour in isolated male mice (antiaggressivity); conditions: Mus musculus, ip, dose which reduces aggressiveness score by 50%, read-out: Antiaggressive behaviour in mice ED50
Protocol: Potential anxiolytic activity is tested by measuring the antiaggressivity in isolated mice after administration of the test substance. In this test not amphetamine but Valium -- a well-known anxiolytic substance -- is used as a reference.
Aggressive behaviour in mice
Male mice kept isolated for 3 weeks or longer develop an aggressive behavior when caged together. The method used follows that of Valzelli et al. (Europ. J. Pharmacol. 2, 144, 1967), with the exception that 2 mice were tested on each other. The aggressiveness was scored during a 5 min test according to the following schedule:
0 the animals show no interest in each other except occasional nosing
25 frequent vigorous nosing and tail rattling, the animals assume a fighting position and occassionally attack each other -- no more than 3-4 times in the 5 min period
50 tail rattling, powerful attacks -- no more than 10 times in the test period
75 the animals follow their partners, attacking and biting for most of the time
100 attacks over the entire period.
The animals were used for several experiments but with intervals of at least one week. Groups of 10 mice were used.
ED50 is the dose which reduces the aggressiveness score by 50%.

Row | Compound | ED50 [1] [mg/kg] | Motor Activity (+ = increase, - = decrease, 0 = no effect) [2] | ED50 [3] [mg/kg] | central stimulation (in words) [2]
1 | CC(N)Cc1c(Cl)cc(N(C)C)cc1Cl.Cl.Cl (centres unmarked) [2-Cl 6-Cl CH3 CH3 H CH3] | 0.1 | - | > 5 | 
2 | CC(N)Cc1ccccc1 (centres unmarked) [Amphetamine] | > 5 |  |  | pronounced
3 | CC(N)Cc1ccc(N(C)C)cc1Br.Cl.Cl (centres unmarked) [H 2-Br CH3 CH3 H CH3] | 0.1 |  |  | 
4 | Cc1cc(N(C)C)ccc1CC(C)N.Cl.Cl (centres unmarked) [H 2-CH3 CH3 CH3 H CH3] | 0.6 | - | 2.5 to 5 | 
5 | CCC(N)Cc1ccc(N(C)C)cc1Cl (centres unmarked) [H 2-Cl CH3 CH3 H C2 H5] | 0.25 | 0 |  | 
6 | CC(N)Cc1ccc(N(C)C)cc1Cl.Cl.Cl (centres unmarked) [H 2-Cl CH3 CH3 H CH3] | 0.25 | - | 2.5 to 5 | 
7 | CC(N)Cc1ccc(N(C)C)c(Br)c1.Cl.Cl (centres unmarked) [H 3-Br CH3 CH3 H CH3] | 1 |  | > 5 | 
8 | CCN(CC)c1ccc(CC(C)N)cc1 (centres unmarked) [H H C2 H5 C2 H5 H CH3] | 2 | - | 5 to 10 | 
9 | CCN(C)c1ccc(CC(C)N)cc1 (centres unmarked) [H H C2 H5 CH3 H CH3] | 0.7 |  | < 5 | 
10 | CCNc1ccc(CC(C)N)cc1.Cl.Cl (centres unmarked) [H H C2 H5 H H CH3] | 1 |  | 1.25 | 
11 | CC(N)Cc1ccc2c(c1)CCCN2C.Cl.Cl (centres unmarked) [H H CH3 (CH2)3 H CH3, 6-(2-AMINOPROPYL)-1-METHYL-1, 2, 3, 4-TETRAHYDROQUINOLINE DIHYDROCHLORIDE] | 1.5 |  | > 5 | 
12 | CN(C)c1ccc(CC(C)(C)N)cc1.Cl.Cl [H H CH3 CH3 CH3 CH3] | 2.5 | 0 |  | 
13 | CN1C(=O)CN=C(c2ccccc2)c2cc(Cl)ccc21 [Valium, reference compound] |  |  | 2.5 | 
14 | CC(N)Cc1ccc(N)cc1 (centres unmarked) [p-Aminoamphetamine, reference compound] | 11.5 |  |  | 
15 | CC(N)Cc1ccc(Cl)cc1 (centres unmarked) [p-Chloroamphetamine, reference compound] | 0.8 |  | 0.3 | pronounced
